# pIC50: −log10 of the molar value. Counter-ions that a name gives are not always drawn.
# What was measured:
# Format in all cases: biochemical
# [1] = target: PIM-1 (Homo sapiens, UniProt P11309); experiment: Enzyme PIM-1 Assay ([33P]ATP incorporation into PIM2tide, filter plate); settings: averaged IC50; 35 μM ATP, 7.5 μM PIM2tide, 0.25 nM PIM-1, 60 min at 22° C.
# Method in brief: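 Ten-point, 3-fold dilution series (10 μM top, 2% DMSO final) tested for inhibition of 33P transfer from 35 μM ATP to 7.5 μM PIM2tide by 0.25 nM PIM-1. Reaction 60 min, 22 °C, pH 7.4 MOPS/MgCl2 buffer; phosphocellulose capture, scintillation counting, IC50 where fitted POC equals 50.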
# [2] = target: T1, GST-tagged recombinant full-length human Pim-2 (Homo sapiens, UniProt Q9P1W9); experiment: PIM-2 Assay (as Example A); settings: averaged IC50; 4 μM ATP, 1.0 μM PIM2tide, 1.5 nM Pim-2
# T1 construct: GST-tagged recombinant full-length human Pim-2; GST
# Method in brief: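 IC50 was derived by 4-parameter logistic fitting of percent-of-control data over a 10-point, 3-fold series (highest 10 μM, 2% DMSO). Reactions held 1.5 nM GST-Pim-2 (full-length, human), 4 μM [γ-33P]ATP and 1.0 μM PIM2tide for 60 min at 22 °C, pH 7.4; 33P-peptide captured on P81 filters.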
# [3] = target: recombinant rat PIM-3 (Rattus norvegicus, UniProt O70444); experiment: PIM-3 Assay (as Example A); settings: averaged IC50; 30 μM ATP, 3.75 μM PIM2tide, 0.5 nM PIM-3
# Method in brief: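 33P incorporation from 30 μM [γ-33P]ATP into 3.75 μM PIM2tide by 0.5 nM rat PIM-3, 60 min at 22 °C in pH 7.4 MOPS buffer, read by P81 filter capture and scintillation counting. Compounds tested in 3-fold dilutions up to 10 μM final, 2% DMSO; percent-of-control data fitted by 4-parameter logistic for IC50.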
# T1 sequence (Q9P1W9 whole entry): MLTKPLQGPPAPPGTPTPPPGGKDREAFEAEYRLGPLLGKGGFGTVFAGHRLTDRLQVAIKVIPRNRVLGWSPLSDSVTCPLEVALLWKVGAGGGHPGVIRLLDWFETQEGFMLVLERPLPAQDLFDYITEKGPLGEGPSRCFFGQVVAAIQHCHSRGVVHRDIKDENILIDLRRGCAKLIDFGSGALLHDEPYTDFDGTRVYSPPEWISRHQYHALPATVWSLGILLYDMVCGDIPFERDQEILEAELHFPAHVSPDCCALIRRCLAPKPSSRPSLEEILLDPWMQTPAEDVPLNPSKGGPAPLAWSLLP
# PIM-1, sequence (P11309 whole entry, species assumed): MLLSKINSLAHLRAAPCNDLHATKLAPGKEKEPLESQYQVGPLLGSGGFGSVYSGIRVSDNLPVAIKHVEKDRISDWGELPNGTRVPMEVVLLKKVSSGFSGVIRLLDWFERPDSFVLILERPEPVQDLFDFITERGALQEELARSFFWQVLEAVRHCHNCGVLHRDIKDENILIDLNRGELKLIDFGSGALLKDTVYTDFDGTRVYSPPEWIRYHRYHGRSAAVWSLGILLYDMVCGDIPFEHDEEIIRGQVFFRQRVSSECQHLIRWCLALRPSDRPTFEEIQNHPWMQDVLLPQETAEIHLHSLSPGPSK
SMILES,pIC50 [1],pIC50 [2],pIC50 [3]
"CN[C@H]1CCN([C@H](c2ccc3nnc(-c4ccc5ccc(C(=O)NC(C)C)cc5n4)n3c2)C(F)(F)F)C1 [Example 57, N-isopropyl-2-(6-((R)-2,2,2-trifluoro-1-((S)-3-(methylamino)pyrrolidin-1-yl)ethyl)-[1,2,4]triazolo[4,3-a]pyridin-3-yl)quinoline-7-carboxamide]",9.35,< 7.00,9.05
"N[C@@H]1CCN([C@H](c2ccc3nnc(-c4ccc5ccc(C6CC6)cc5n4)n3c2)C(F)(F)F)C1 [Example 61, (R)-1-((R)-1-(3-(7-cyclopropylquinolin-2-yl)-[1,2,4]triazolo[4,3-a]pyridin-6-yl)-2,2,2-trifluoroethyl)pyrrolidin-3-amine dihydrochloride]",9.23,< 7.00,8.43
"CC(C)(C)c1cccc2ccc(-c3nnc4ccc([C@@H](N5C[C@@H]6C[C@H]5CN6)C(F)(F)F)cn34)nc12 [Example 62, 2-(6-((R)-1-((1S,4S)-2,5-diazabicyclo[2.2.1]heptan-2-yl)-2,2,2-trifluoroethyl)-[1,2,4]triazolo[4,3-a]pyridin-3-yl)-8-tert-butylquinoline]",9.15,8.54,8.85
"FC(F)(F)[C@@H](c1ccc2nnc(-c3ccc4ccc(Cl)cc4n3)n2c1)N1C[C@@H]2C[C@H]1CN2 [Example 64, 2-(6-((R)-1-((1S,4S)-2,5-diazabicyclo[2.2.1]heptan-2-yl)-2,2,2-trifluoroethyl)-[1,2,4]triazolo[4,3-a]pyridin-3-yl)-7-chloro quinoline dihydrochloride]",8.03,< 7.00,7.85
"CCc1cccc2ccc(-c3nnc4ccc([C@@H](N5C[C@@H]6C[C@H]5CN6)C(F)(F)F)cn34)nc12 [Example 66, 2-(6-((R)-1-((1S,4S)-2,5-diazabicyclo[2.2.1]heptan-2-yl)-2,2,2-trifluoroethyl)-[1,2,4]triazolo[4,3-a]pyridin-3-yl)-8-ethylquinoline dihydrochloride]",9.04,7.85,8.77
"FC(F)(F)[C@@H](c1ccc2nnc(-c3ccc4ccc(Br)cc4n3)n2c1)N1C[C@@H]2C[C@H]1CN2 [Example 68, 2-(6-((R)-1-(1S,4S)-2,5-diazabicyclo[2.2.1]heptan-2-yl)-2,2,2-trifluoroethyl)-[1,2,4]triazolo[4,3-a]pyridin-3-yl)-7-bromo quinoline dihydrochloride]",8.39,< 7.00,7.85
"COc1c(C2CC2)ccc2ccc(-c3nnc4ccc([C@@H](N5CC[C@H](N)C5)C(F)(F)F)cn34)nc12 [Example 69, (S)-1-((R)-1-(3-(7-cyclopropyl-8-methoxyquinolin-2-yl)-[1,2,4]triazolo[4,3-a]pyridin-6-yl)-2,2,2-trifluoroethyl)pyrrolidin-3-amine dihydrochloride]",9.68,7.42,9.30
"CC(C)C(=O)Nc1ccc2ccc(-c3nnc4ccc([C@@H](N5CC[C@H](N)C5)C(F)(F)F)cn34)nc2c1 [Example 70, N-(2-(6-((R)-1-((S)-3-aminopyrrolidin-1-yl)-2,2,2-trifluoroethyl)-[1,2,4]triazolo[4,3-a]pyridin-3-yl)quinolin-7-yl)isobutyramide]",9.74,< 7.00,9.52
"CC(C)Oc1cccc2ccc(-c3nnc4ccc([C@@H](N5C[C@@H](O)[C@H](O)C5)C(F)(F)F)cn34)nc12 [Example 72, (3R,4R)-1-((R)-2,2,2-trifluoro-1-(3-(8-isopropoxyquinolin-2-yl)-[1,2,4]triazolo[4,3-a]pyridin-6-yl)ethyl)pyrrolidine-3,4-diol]",9.72,< 7.00,8.54

# More lines, in order of rising pIC50 [1], values ahead:
pIC50 [1],pIC50 [2],pIC50 [3],SMILES
7.93,< 7.00,7.60,"Fc1ccc2ccc(-c3nnc4ccc([C@@H](N5C[C@@H]6C[C@H]5CN6)C(F)(F)F)cn34)nc2c1 [Example 63, 2-(6-((R)-1-((1S,4S)-2,5-diazabicyclo[2.2.1]heptan-2-yl)-2,2,2-trifluoroethyl)-[1,2,4]triazolo[4,3-a]pyridin-3-yl)-7-fluoro quinoline dihydrochloride]"
8.79,7.20,8.49,"FC(F)(F)[C@@H](c1ccc2nnc(-c3ccc4cccc(OCC5CC5)c4n3)n2c1)N1C[C@@H]2C[C@H]1CN2 [Example 67, 2-(6-((R)-1-((1S,4S)-2,5-diazabicyclo[2.2.1]heptan-2-yl)-2,2,2-trifluoroethyl)-[1,2,4]triazolo[4,3-a]pyridin-3-yl)-8-(cyclopropylmethoxy)quinoline dihydrochloride]"
8.84,7.74,8.70,"FC(F)(F)[C@@H](c1ccc2nnc(-c3ccc4cccc(C5CC5)c4n3)n2c1)N1C[C@@H]2C[C@H]1CN2 [Example 65, 2-(6-((R)-1-((1S,4S)-2,5-diazabicyclo[2.2.1]heptan-2-yl)-2,2,2-trifluoroethyl)-[1,2,4]triazolo[4,3-a]pyridin-3-yl)-8-cyclopropylquinoline dihydrochloride]"
9.22,< 7.00,9.15,"CN[C@H]1CCN([C@H](c2ccc3nnc(-c4ccc5ccc(C(=O)NC(C)(C)C)cc5n4)n3c2)C(F)(F)F)C1 [Example 58, N,N-tert-butyl-2-(6-((R)-2,2,2-trifluoro-1-((S)-3-(methylamino)pyrrolidin-1-yl)ethyl)-[1,2,4]triazolo[4,3-a]pyridin-3-yl)quinoline-7-carboxamide]"
9.25,< 7.00,9.10,"CCC(C)(C)NC(=O)c1ccc2ccc(-c3nnc4ccc([C@@H](N5CC[C@@H](N)C5)C(F)(F)F)cn34)nc2c1 [Example 59, 2-(6-((R)-1-((R)-3-aminopyrrolidin-1-yl)-2,2,2-trifluoroethyl)-[1,2,4]triazolo[4,3-a]pyridin-3-yl)-N-tert-pentylquinoline-7-carboxamide dihydrochloride]"
9.70,< 7.00,9.52,"CC(C)(C)C(=O)Nc1ccc2ccc(-c3nnc4ccc([C@@H](N5CC[C@H](N)C5)C(F)(F)F)cn34)nc2c1 [Example 71, N-(2-(6-((R)-1-((S)-3-aminopyrrolidin-1-yl)-2,2,2-trifluoroethyl)-[1,2,4]triazolo[4,3-a]pyridin-3-yl)quinolin-7-yl)pivalamide]"
9.72,7.11,8.40,"N[C@H]1CCN([C@H](c2ccc3nnc(-c4ccc5ccc(F)c(C6CC6)c5n4)n3c2)C(F)(F)F)C1 [Example 60, (S)-1-((R)-1-(3-(8-cyclopropyl-7-fluoroquinolin-2-yl)-[1,2,4]triazolo[4,3-a]pyridin-6-yl)-2,2,2-trifluoroethyl)pyrrolidin-3-amine dihydrochloride]"
9.85,7.80,8.62,"N[C@@H]1CCN([C@@H](c2ccc3nnc(-c4ccc5cccc(C6CC6)c5n4)n3c2)C(F)(F)F)C1 [Example 56, (R)-1-((S)-1-(3-(8-cyclopropylquinolin-2-yl)-[1,2,4]triazolo[4,3-a]pyridin-6-yl)-2,2,2-trifluoroethyl)pyrrolidin-3-amine]"

# Reference: patent publication US8889704B2 (Array BioPharma Inc., priority 2011, dated 2014)
